Experimental data taken from US10143686B2, “Oxidosqualene cyclase as a protein target for anticancer therapeutics” (The Curators of the University of Missouri, priority 2010, dated 2018).
Counter-ions that a name gives are not always drawn. Like-named read-outs stand apart in the source and are kept apart here.

Key:
[1] = tested on: PC-3 and DU-145 human prostate cancer cells; test: Annexin V / PI apoptosis assay, prostate cancer cells; format: cell-based; details: 24 hours
Excerpt: (§1) Apoptosis is a normal physiologic process which occurs during embryonic development as well as in maintenance of tissue homeostasis. The apoptotic program is characterized by certain morphologic features, including loss of plasma membrane asymmetry and attachment, condensation of the cytoplasm and nucleus, and internucleosomal cleavage of DNA. […]. In apoptotic cells, the membrane phospholipid phosphatidylserine (PS) is translocated from the inner to the outer leaflet of the plasma membrane, thereby exposing PS to the external cellular environment. Annexin V is a 35-36 kDa Ca2+ dependent phospholipid-binding protein that has a high affinity for PS, and binds to cells with exposed PS. Annexin V may be conjugated to fluorochromes including FITC. […]
(§2) FITC Annexin V staining precedes the loss of membrane integrity which accompanies the latest stages of cell death resulting from either apoptotic or necrotic processes. […] However, when apoptosis is measured over time, cells can be often tracked from FITC Annexin V and PI negative (viable, or no measurable apoptosis), to FITC Annexin V positive and PI negative (early apoptosis, membrane integrity is present) and finally to FITC Annexin V and PI positive (end stage apoptosis and death). […]

[2] = tested on: DU145 prostate cancer cells; test: SRB cell viability assay, DU145; format: cell-based; details: Homo sapiens
Description: (§3) The effect of OSC inhibition was evaluated in additional cancer cell lines as well. Cancer cell lines may be purchased from ATCC (Manassas, Va.). The SRB assay has been employed for determination of the inhibitory effects of RO 48-8071 on growth of different cancer cells. Cells were seeded into 96-well plates and incubated overnight at 37° C. with 5% CO2. The culture medium was removed after 24 hours, and cells were washed with DMEM/F12 medium and then treated with various concentrations of RO 48-8071 in 5% FBS culture medium for 24 and 48 hours. Surviving or adherent cells were fixed in situ by withdrawing the growth medium, adding 100 μl PBS and 100 μl 50% trichloroacetic acid and then incubating at 4° C. for one hour. Cells were washed with ice-cold water, dried at room temperature (RT), and then stained with 50 μl 4% SRB for eight minutes at RT. Unbound dye was removed by washing with cold 1% acetic acid for five times, and plates were dried at RT. Bound stain was solubilized with 150 μl 10 mM Tris buffer and absorbance of samples was read at 520 nm with a SpecTRA MAX 190 microplate reader (Molecular Devices, Sunnyvale, Calif.). Six wells were used for each concentration, and each experiment was performed two to three times.
Effect of RO 48-8071 on prostate cancer cell line DU145 viability. […] The culture mediums employed 10% FBS EMEM for culture and 5% FBS EMEM for treatment.

[3] = tested on: BT-20 breast cancer cells; test: SRB cell viability assay, BT-20; format: cell-based; details: Homo sapiens, BT-20, Breast (triple negative)
Description: as §3
Effect of RO 48-8071 on estrogen, progesterone, and HER-2/neu receptors negative breast cancer cell line MDA-231 and BT-20 viability. […]

[4] = tested on: BT-474 human breast cancer xenograft; test: BT-474 breast tumor xenograft in nude mice
Description: Female athymic nu/nu nude mice, 5 to 6 weeks-old (18-22 g) were purchased from Harland Sprague-Dawley, Inc. Nude mice were inoculated with 17-β-Estradiol pellets (1.7 mg/pellet, 60 days release) 48 hours before inoculating tumor cells. BT-474 human breast cancer cells, 5×10^6 in 0.15 ml solution mixed with matrigel and DMEM/F12 medium (4/1, v/v) were injected into each flank of mouse subcutaneously and both flanks of each mouse were injected. When tumor volume reached around 100 mm3, animal were randomly assigned to three groups and the treatment started with RO 48-8071 (5 mg/kg/day or 10 mg/kg/day) via tail-vein injection for five days, followed by same treatment every other day for five additional times as shown in the FIG. 13A. Animals in control group received the vehicle alone under identical conditions. Tumor volumes were measured by a digital caliper and calculated using the formula (L×W×H)×0.5236.
Animal weight was monitored throughout the experiment.

[5] = tested on: BT-474, MCF-7, BT-20 and MDA-231 human breast cancer cells; test: Annexin V / PI apoptosis assay, breast cancer cells; format: cell-based; details: 24 hours
Excerpt: as §1, §2

C=CCN(C)CCCCCCOc1ccc(C(=O)c2ccc(Br)cc2)c(F)c1 [Ro 48-8071, 4′-[6-(Allylmethylamino)hexyloxy]-4-bromo-2′-fluorobenzophenone fumarate]
apoptosis and cell death (annexin V / PI positive cells) [1]: Induces Apoptosis and Cell Death
IC50 ([2]; DU-145, 24 hours, read-out: IC50 (μM) (24 hours)): 13.5 ± 0.895 µM
IC50 ([2]; DU-145, 48 hours, read-out: IC50 (μM) (48 hours)): 8.61 ± 0.455 µM
IC50 ([3]; 24 hours, read-out: IC50 (μM) (24 hours)): 15.8 ± 0.335 µM
IC50 ([3]; 48 hours, read-out: IC50 (μM) (48 hours)): 12.7 ± 0.18 µM
tumor volume versus control group ([4]; 5 or 10 mg/kg/day, tail-vein injection, P<0.05 ANOVA, FIG. 13A): Significant differences were observed compared with control group
toxicity at doses used for inhibiting tumor growth ([4]; BT-474 tumor-bearing nude mice): non-toxic
animal weight, control versus treated groups ([4]; BT-474 tumor-bearing nude mice, FIG. 13B): No significant difference
apoptosis and cell death (annexin V / PI positive cells) [5]: Induces Apoptosis and Cell Death
